The source of these data is PMC6030209, “Structure-Activity Investigations and Optimisations of Non-metabolite Agonists for the Succinate Receptor 1” (Scientific Reports, 2018).

Each structure is given as a SMILES string. Where two headings read alike, the source gives them in different places.

Format in all cases: cell-based
In one assay the test system is SUCNR1. The assay can be described thus: Active/inactive grouping by EC50 threshold (ALiBERO training set, Table S1). The note with it: active (1) / inactive (0), EC50 threshold of 10 µM. The source says: In brief, starting from the homology model supported by mutagenesis data[4], ALiBERO introduced receptor flexibility via Normal Mode Analysis and Monte Carlo sampling, to generate a small subset of receptor models (pockets). […] For a list of all compounds used in the optimisation protocol, see Table S1. Receptor structures were then chosen based on their ability to discriminate actives from inactives in a retrospective virtual screening using the docking protocol and scoring function in ICM (Molsoft L.L.C., San Diego, CA, USA)[20], as measured by the normalised square root area under the curve (NSQ_AUC). […] The ALiBERO-optimised receptor ensemble was subsequently validated in a virtual ligand screening using an external test set with a higher active:decoy ratio (~1:50).
ALiBERO is an iterative sampling-selection protocol for receptor optimisation that relies on the use of ligand information for selecting the best-performing receptor conformations. Homology models of the mouse SUCNR1 receptor were constructed according to Trauelsen et al.[4] and loaded into ICM (Molsoft L.L.C., San Diego, CA, USA). The structure was converted into an ICM object, thereby assigning protein atom types, optimising hydrogens and His, Pro, Asn, […] and Cys side-chain conformations. […] For a list of all compounds used in the optimisation protocol, see Table S1. ALiBERO was performed using the prepared receptor structure and ligand training set as input. Binding site residues were manually selected based on proximity to the position of MRS2500 in the superimposed structure of the P2Y1 receptor (PDB 4XNW). 100 elastic network normal mode analysis derived conformers were built in order to recreate backbone and side-chain flexibility (T = 300 K). Next, a flexible-ligand static-receptor small-scale virtual screening was performed on each of the receptor conformers, from which several pockets were selected for the following generation. The ligand and decoy molecules were docked into mSUCNR1, represented as pre-calculated potential grids and then sorted according to their ICM VLS scores. The maximum number of complementary pockets for each generation was set to 5 with a maximum of 10 generations. Receptor models were selected based on their combined screening performance, as determined by the normalised square root area under the curve, NSQ_AUC. After each round of virtual screening, an all-atom Monte Carlo side-chain refinement was performed to account for induced-by-ligand changes. NSQ_AUC values were calculated according to Katritch et al.[16].

A further assay has as its target T1, mSUCNR1 (Mus musculus, UniProt Q99MT6).
T1 construct: FLAG (own knowledge: pCMV-Tag 2B is an N-terminal FLAG vector); host or cells: HEK-293, transient transfection with Lipofectamine-2000
T1 sequence (Q99MT6 1-317): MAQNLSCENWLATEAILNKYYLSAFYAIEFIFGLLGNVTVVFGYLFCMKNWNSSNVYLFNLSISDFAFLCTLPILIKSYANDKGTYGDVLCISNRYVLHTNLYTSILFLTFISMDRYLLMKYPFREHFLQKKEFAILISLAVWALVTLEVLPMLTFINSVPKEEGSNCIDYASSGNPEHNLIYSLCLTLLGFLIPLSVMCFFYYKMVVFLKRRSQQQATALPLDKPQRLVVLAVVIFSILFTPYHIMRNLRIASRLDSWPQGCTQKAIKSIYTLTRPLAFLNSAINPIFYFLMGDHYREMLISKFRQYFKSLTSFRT
The assay can be described thus: IP3 turnover assay in mSUCNR1 transfected HEK-293 cells. The settings on record: for mSUCNR1 efficacy, %: efficacy relative to succinate (100%), HEK cells (N = 3); for mSUCNR1 efficacy, % / mSUCNR1 % @10^−4M: IP3 turnover; for mSUCNR1 % @10^−4M: relative to succinate (100%). The protocol:
(§1) Receptor constructs for mSUCNR1 and hSUCNR1 were bought from Origene and cloned into the eukaryotic expression vector pCMV-Tag(2B) (Stratagene).
(§2) Transient transfection of the HEK-293 cells was done with Lipofectamine-2000 according to manufacturer’s protocol. Cells were supplemented with fresh medium after 5 h.
(§3) 96-well plates were coated with poly-D-lysine and HEK-293 cells were plated (35.000 cells/well). Cells were transfected for 5 h the following day and subsequently incubated O/N with 0.5 μCi/mL myo[3H]inositol (Perkin Elmer) in 100 μL growth medium. On day 3 cells were washed with 200 µL HBSS/well (Gibco, Life Technologies) followed by a pre-incubation (30 min, 37 °C) with 100 µL HBSS supplemented with 10 mM LiCl. Cells were stimulated with ligand (120 min, 37 °C) and lysed with 50 µL 10 mM formic acid (30 min on ice). In a white 96 well plate 20 µL cell extracts and 80 µL 1:8 diluted YSi scintillation beads (Perkin Elmer) were mixed. The plate was spun down, and a Packard Top Count NXT counter recorded light emission (scintillation) after an 8 h delay.

A further assay concerns the target T2, hSUCNR1 (Homo sapiens, UniProt Q9BXA5).
T2 construct: FLAG (own knowledge: pCMV-Tag 2B is an N-terminal FLAG vector); host or cells: HEK-293, transient transfection with Lipofectamine-2000
T2 sequence (Q9BXA5 1-334): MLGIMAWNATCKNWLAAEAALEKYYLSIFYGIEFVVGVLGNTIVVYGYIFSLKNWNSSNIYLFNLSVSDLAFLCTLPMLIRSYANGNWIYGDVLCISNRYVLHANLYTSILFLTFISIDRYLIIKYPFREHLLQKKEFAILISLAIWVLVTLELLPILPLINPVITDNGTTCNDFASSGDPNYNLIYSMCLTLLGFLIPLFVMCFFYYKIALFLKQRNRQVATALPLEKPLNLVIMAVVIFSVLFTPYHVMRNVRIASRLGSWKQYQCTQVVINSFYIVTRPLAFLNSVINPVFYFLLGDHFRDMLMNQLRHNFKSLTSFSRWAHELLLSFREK
The assay can be described thus: IP3 turnover assay in hSUCNR1 transfected HEK-293 cells. The note with it: for hSUCNR1 efficacy, %: efficacy relative to succinate (100%), HEK cells (N = 3); for hSUCNR1 efficacy, % / hSUCNR1 % @10^−4M: IP3 turnover; for hSUCNR1 % @10^−4M: relative to succinate (100%). The protocol: as §1, §2, §3

Setting [1] is: dose-response curves of induction of IP3 turnover in SUCNR1 transfected HEK cells (N = 3).

Take `O=C(O)C[C@H](NC(=O)c1ccc(-c2ccc(C(F)(F)F)cc2)o1)C(=O)O` [Compound 18, (5-(4-(Trifluoromethyl)phenyl)furan-2-carbonyl)-L-aspartic acid]: the Active in the assay with SUCNR1 is given as 1 (active (1)). For the same molecule, at mSUCNR1, the EC50 was 155 nM and the “mSUCNR1 efficacy, %” value is 80.6 ± 4.6%. At hSUCNR1, the EC50 is 282 nM and the “hSUCNR1 efficacy, %” value came to 81.0 ± 7.2%.
As to `O=C(O)C[C@H](NC(=O)c1cccc(-c2ccc(OC(F)(F)F)cc2)c1)C(=O)O` [Compound 30, (4′-(Trifluoromethoxy)-[1,1′-biphenyl]-3-carbonyl)-L-aspartic acid], the Active in the assay on SUCNR1 is 1 (active (1)). Further, the EC50 on mSUCNR1 (dose-response curves of induction of IP3 turnover in SUCNR1 transfected HEK cells (N = 3), read-out: mSUCNR1 pEC50 (converted)) was 1450 nM; on hSUCNR1 (dose-response curves of induction of IP3 turnover in SUCNR1 transfected HEK cells (N = 3), read-out: hSUCNR1 pEC50 (converted)) it was 58.9 nM. Besides, on mSUCNR1, the “mSUCNR1 efficacy, %” value worked out at 45.3 ± 3.4%. Further, the “hSUCNR1 efficacy, %” value at hSUCNR1 was 49.2 ± 2.7%.
Regarding `N#Cc1ccc(-c2ccc(C(=O)N[C@@H](CC(=O)O)C(=O)O)o2)cc1` [Compound 19, (5-(4-Cyanophenyl)furan-2-carbonyl)-L-aspartic acid], in the assay on SUCNR1, the Active was 1 (active (1)). At mSUCNR1, the EC50 is 162 nM and the “mSUCNR1 efficacy, %” value is recorded as 76.0 ± 1.5%. Further, on hSUCNR1, the EC50 is 407 nM and the “hSUCNR1 efficacy, %” value is 72.1 ± 3.2%.
On to `O=C(O)C[C@H](NC(=O)c1ccc(-c2ccccc2)o1)C(=O)O` [Compound 10, (5-Phenylfuran-2-carbonyl)-L-aspartic acid], for which the Active in the assay with SUCNR1 was 1 (active (1)). In addition, on mSUCNR1, the EC50 was 692 nM and the “mSUCNR1 efficacy, %” value amounted to 81.3 ± 3.6%. On hSUCNR1, the EC50 was 5130 nM and the “hSUCNR1 efficacy, %” value stood at 81.6 ± 8.4%.
Take `O=C(O)C[C@H](NC(=O)c1ccc(-c2ccc(F)cc2)cc1)C(=O)O` [Compound 26, (4′-Fluoro-[1,1′-biphenyl]-4-carbonyl)-L-aspartic acid]: the Active in the assay on SUCNR1 was 0 (inactive (0)). Besides, on mSUCNR1, the “mSUCNR1 % @10^−4M” value is reported as 7% @10^−4M. In addition, the “hSUCNR1 % @10^−4M” value at hSUCNR1 is reported as 4% @10^−4M.
Consider `O=C(O)C[C@H](NC(=O)c1ccc(-c2ccc(O)cc2)o1)C(=O)O` [Compound 15, (5-(4-Hydroxyphenyl)furan-2-carbonyl)-L-aspartic acid], for which the Active in the assay with SUCNR1 was 1 (active (1)). In addition, on mSUCNR1, the EC50 is 151 nM and the “mSUCNR1 efficacy, %” value was found to be 74.8 ± 2.0%. Further, on hSUCNR1, the EC50 was 741 nM and the “hSUCNR1 efficacy, %” value worked out at 71.1 ± 4.2%.
For `Cc1cccc(-c2ccc(C(=O)N[C@@H](CC(=O)O)C(=O)O)o2)c1` [Compound 12, (5-(m-Tolyl)furan-2-carbonyl)-L-aspartic acid] the same measures were 1 (active (1)), 851 nM, 81.6 ± 3.0%, 9550 nM and 91.9 ± 5.3%.
As to `O=C(O)C[C@H](NC(=O)c1ccccc1Cl)C(=O)O` [Compound 5, (2-Chlorobenzoyl)-L-aspartic acid], the Active with SUCNR1 was 0 (inactive (0)). The “mSUCNR1 % @10^−4M” value at mSUCNR1 stood at 13% @10^−4M. The “hSUCNR1 % @10^−4M” value at hSUCNR1 was 22% @10^−4M.
In the same order, the values of `O=C(O)C[C@H](NC(=O)c1cccc(I)c1)C(=O)O` [Compound 6, (3-Iodobenzoyl)-L-aspartic acid] are 0 (inactive (0)), 64% @10^−4M and 50% @10^−4M.
In the case of `COc1ccc(-c2ccc(C(=O)N[C@@H](CC(=O)O)C(=O)O)o2)cc1` [Compound 17, (5-(4-Methoxyphenyl)furan-2-carbonyl)-L-aspartic acid], the Active in the assay with SUCNR1 is given as 1 (active (1)). Besides, on mSUCNR1, the EC50 is 40.7 nM and the “mSUCNR1 efficacy, %” value is given as 84.2 ± 1.8%. In addition, at hSUCNR1, the EC50 was 389 nM and the “hSUCNR1 efficacy, %” value is listed as 85.3 ± 4.5%.
As for `O=C(O)C[C@H](NC(=O)Cc1ccc(Br)cc1)C(=O)O` [Compound 8, (2-(4-Bromophenyl)acetyl)-L-aspartic acid], the Active in the assay on SUCNR1 was 0 (inactive (0)). Further, the “mSUCNR1 % @10^−4M” value on mSUCNR1 is 11% @10^−4M. Moreover, the “hSUCNR1 % @10^−4M” value on hSUCNR1 came to 5% @10^−4M.
Turning to `Cc1ccc(-c2ccc(C(=O)N[C@@H](CC(=O)O)C(=O)O)o2)cc1` [Compound 13, (5-(p-Tolyl)furan-2-carbonyl)-L-aspartic acid], the Active in the assay with SUCNR1 is 1 (active (1)). The “mSUCNR1 pEC50” value at mSUCNR1 (setting [1]) was found to be 6.83 ± 0.11. The “mSUCNR1 efficacy, %” value at mSUCNR1 is on record as 73.2 ± 2.7%. Moreover, the “hSUCNR1 pEC50” value on hSUCNR1 (setting [1]) was found to be 6.33 ± 0.14. Also, on hSUCNR1, the “hSUCNR1 efficacy, %” value was 69.1 ± 3.9%.
Take `O=C(O)C[C@H](NC(=O)c1ccc(-c2cccc(CO)c2)o1)C(=O)O` [Compound 14, (5-(3-(Hydroxymethyl)phenyl)furan-2-carbonyl)-L-aspartic acid]: the Active with SUCNR1 is given as 1 (active (1)). Also, at mSUCNR1, the EC50 is 1950 nM and the “mSUCNR1 efficacy, %” value turned out to be 79.6 ± 3.7%. On mSUCNR1 (relative to the 3-methyl (12), orthologue not stated), the decrease in potency is reported as 3 fold. Besides, on hSUCNR1, the EC50 was 15500 nM and the “hSUCNR1 efficacy, %” value came to 74.2 ± 11.8%.
